ChEMBL document CHEMBL3822455, “Aryl or heteroaryl substituted aminal derivatives of HCV NS5A inhibitor MK-8742” (Bioorg Med Chem Lett, 2016)

How the values were obtained:
Assay type in all cases: functional, organism-based, Hepacivirus hominis
[1] = test system: Hepatitis C virus; assay: Antiviral activity against HCV genotype 2a assessed as replicon RNA level measured after 3 days by real-time PCR method; conditions: 72 h
[2] = test system: Hepatitis C virus; assay: Antiviral activity against HCV genotype 1a harboring NS5A Y93H mutant assessed as replicon RNA level measured after 3 days by real-time PCR method; conditions: subtype 1a, 72 h
[3] = test system: Hepatitis C virus; assay: Antiviral activity against HCV genotype 4a assessed as replicon RNA level measured after 3 days by real-time PCR method; conditions: 72 h
[4] = test system: Hepatitis C virus; assay: Antiviral activity against HCV genotype 1a assessed as replicon RNA level measured after 3 days by real-time PCR method; conditions: subtype 1a, 72 h
[5] = test system: Hepatitis C virus; assay: Antiviral activity against HCV genotype 1a harboring NS5A L31V mutant assessed as replicon RNA level measured after 3 days by real-time PCR method; conditions: subtype 1a, 72 h
[6] = test system: Hepatitis C virus; assay: Antiviral activity against HCV genotype 2b assessed as replicon RNA level measured after 3 days by real-time PCR method; conditions: 72 h
[7] = test system: Hepatitis C virus; assay: Antiviral activity against HCV genotype 3a assessed as replicon RNA level measured after 3 days by real-time PCR method; conditions: 72 h
[8] = test system: Hepatitis C virus; assay: Antiviral activity against HCV genotype 1b assessed as replicon RNA level measured after 3 days by real-time PCR method; conditions: 72 h

Compound: CCOc1cccc(C2Oc3cc(-c4cnc([C@@H]5CCCN5C(=O)[C@@H](NC(=O)OC)C(C)C)[nH]4)ccc3-c3cc4cc(-c5cnc([C@@H]6CCCN6C(=O)[C@@H](NC(=O)OC)C(C)C)[nH]5)ccc4n32)c1 (mixture of isomers)
- EC50 [1]: 0.01 nM
- EC50 [2]: 1.8 nM
- EC50 [3]: 0.0005 nM
- EC50 [4]: 0.02 nM
- EC50 [5]: 0.2 nM
- EC50 [6]: 0.4 nM
- EC50 [7]: 0.05 nM
- EC50 [8]: 0.001 nM

Compound: COC(=O)N[C@H](C(=O)N1CCC[C@H]1c1ncc(-c2ccc3c(c2)OC(c2ccc(C#N)cc2)n2c-3cc3cc(-c4cnc([C@@H]5CCCN5C(=O)[C@@H](NC(=O)OC)C(C)C)[nH]4)ccc32)[nH]1)C(C)C (mixture of isomers)
- EC50 [1]: 0.006 nM
- EC50 [2]: 12 nM
- EC50 [3]: 0.01 nM
- EC50 [4]: 0.004 nM
- EC50 [5]: 0.6 nM
- EC50 [6]: 6.5 nM
- EC50 [7]: 0.25 nM
- EC50 [8]: 0.003 nM

Compound: COC(=O)N[C@H](C(=O)N1CCC[C@H]1c1ncc(-c2ccc3c(c2)OC(c2ccc(-c4ccc(-c5ccccc5)cc4)cc2)n2c-3cc3cc(-c4cnc([C@@H]5CCCN5C(=O)[C@@H](NC(=O)OC)C(C)C)[nH]4)ccc32)[nH]1)C(C)C (mixture of isomers)
- EC50 [1]: 0.003 nM
- EC50 [2]: < 2 nM
- EC50 [3]: 0.001 nM
- EC50 [4]: 0.001 nM
- EC50 [5]: 0.06 nM
- EC50 [6]: 0.06 nM
- EC50 [7]: 0.1 nM
- EC50 [8]: 0.002 nM

Compound: COC(=O)N[C@H](C(=O)N1CCC[C@H]1c1ncc(-c2ccc3c(c2)OC(c2cccc(-c4ccc(-c5ccccc5)cc4)c2)n2c-3cc3cc(-c4cnc([C@@H]5CCCN5C(=O)[C@@H](NC(=O)OC)C(C)C)[nH]4)ccc32)[nH]1)C(C)C (mixture of isomers)
- EC50 [1]: 0.003 nM
- EC50 [2]: 2 nM
- EC50 [3]: 0.005 nM
- EC50 [4]: 0.006 nM
- EC50 [5]: 0.3 nM
- EC50 [6]: 3 nM
- EC50 [7]: 0.01 nM
- EC50 [8]: 0.003 nM

Compound: COC(=O)N[C@H](C(=O)N1CCC[C@H]1c1ncc(-c2ccc3c(c2)OC(c2ccc(-c4cccc(-c5ccccc5)c4)cc2)n2c-3cc3cc(-c4cnc([C@@H]5CCCN5C(=O)[C@@H](NC(=O)OC)C(C)C)[nH]4)ccc32)[nH]1)C(C)C (mixture of isomers)
- EC50 [1]: < 0.02 nM
- EC50 [2]: 2 nM
- EC50 [3]: < 0.02 nM
- EC50 [4]: < 0.02 nM
- EC50 [5]: < 2 nM
- EC50 [6]: < 2 nM
- EC50 [7]: 0.2 nM
- EC50 [8]: 0.003 nM

Compound: COC(=O)N[C@H](C(=O)N1CCC[C@H]1c1ncc(-c2ccc3c(c2)OC(c2cccc(-c4noc(C)n4)c2)n2c-3cc3cc(-c4cnc([C@@H]5CCCN5C(=O)[C@@H](NC(=O)OC)C(C)C)[nH]4)ccc32)[nH]1)C(C)C (mixture of isomers)
- EC50 [1]: 0.002 nM
- EC50 [2]: 0.9 nM
- EC50 [3]: 0.01 nM
- EC50 [4]: 0.003 nM
- EC50 [5]: 0.2 nM
- EC50 [6]: 2 nM
- EC50 [7]: 0.07 nM
- EC50 [8]: 0.004 nM

Compound: COC(=O)N[C@H](C(=O)N1CCC[C@H]1c1ncc(-c2ccc3c(c2)OC(c2cccc(C(F)(F)F)c2)n2c-3cc3cc(-c4cnc([C@@H]5CCCN5C(=O)[C@@H](NC(=O)OC)C(C)C)[nH]4)ccc32)[nH]1)C(C)C (mixture of isomers)
- EC50 [1]: 0.003 nM
- EC50 [2]: 2 nM
- EC50 [3]: 0.01 nM
- EC50 [4]: 0.003 nM
- EC50 [5]: 0.62 nM
- EC50 [6]: 2 nM
- EC50 [7]: 0.04 nM
- EC50 [8]: 0.003 nM

Compound: CCc1cccc(C2Oc3cc(-c4cnc([C@@H]5CCCN5C(=O)[C@@H](NC(=O)OC)C(C)C)[nH]4)ccc3-c3cc4cc(-c5cnc([C@@H]6CCCN6C(=O)[C@@H](NC(=O)OC)C(C)C)[nH]5)ccc4n32)c1 (mixture of isomers)
- EC50 [1]: 0.02 nM
- EC50 [2]: 10 nM
- EC50 [3]: 0.001 nM
- EC50 [4]: 0.002 nM
- EC50 [5]: 0.51 nM
- EC50 [6]: 3 nM
- EC50 [7]: 0.2 nM
- EC50 [8]: 0.002 nM

Compound: COC(=O)N[C@H](C(=O)N1CCC[C@H]1c1ncc(-c2ccc3c(c2)OC(c2ccc(OC)cc2)n2c-3cc3cc(-c4cnc([C@@H]5CCCN5C(=O)[C@@H](NC(=O)OC)C(C)C)[nH]4)ccc32)[nH]1)C(C)C (mixture of isomers)
- EC50 [1]: 0.004 nM
- EC50 [2]: 15 nM
- EC50 [3]: 0.008 nM
- EC50 [4]: 0.01 nM
- EC50 [5]: 0.3 nM
- EC50 [6]: 0.8 nM
- EC50 [7]: 0.07 nM
- EC50 [8]: 0.007 nM

Compound: COC(=O)N[C@H](C(=O)N1CCC[C@H]1c1ncc(-c2ccc3c(c2)OC(c2cccc(-c4ncon4)c2)n2c-3cc3cc(-c4cnc([C@@H]5CCCN5C(=O)[C@@H](NC(=O)OC)C(C)C)[nH]4)ccc32)[nH]1)C(C)C (mixture of isomers)
- EC50 [1]: 0.007 nM
- EC50 [2]: 6 nM
- EC50 [3]: 0.02 nM
- EC50 [4]: 0.009 nM
- EC50 [5]: 0.2 nM
- EC50 [6]: 4 nM
- EC50 [7]: 0.4 nM
- EC50 [8]: 0.006 nM

Compound: COC(=O)N[C@H](C(=O)N1CCC[C@H]1c1ncc(-c2ccc3c(c2)OC(c2ccccc2)n2c-3cc3cc(-c4cnc([C@@H]5CCCN5C(=O)[C@@H](NC(=O)OC)C(C)C)[nH]4)ccc32)[nH]1)C(C)C (some centres not stated)
- EC50 [1]: 0.003 nM
- EC50 [2]: 2 nM
- EC50 [3]: 0.003 nM
- EC50 [4]: 0.004 nM
- EC50 [5]: 0.5 nM
- EC50 [6]: 3 nM
- EC50 [7]: 0.02 nM
- EC50 [8]: 0.003 nM

Compound: COC(=O)N[C@H](C(=O)N1CCC[C@H]1c1ncc(-c2ccc3c(c2)OC(c2ccc(F)c(F)c2)n2c-3cc3cc(-c4cnc([C@@H]5CCCN5C(=O)[C@@H](NC(=O)OC)C(C)C)[nH]4)ccc32)[nH]1)C(C)C (some centres not stated)
- EC50 [1]: 0.005 nM
- EC50 [2]: 3 nM
- EC50 [3]: 0.008 nM
- EC50 [4]: 0.004 nM
- EC50 [5]: 0.5 nM
- EC50 [6]: 1 nM
- EC50 [8]: 0.003 nM

Compound: COC(=O)N[C@H](C(=O)N1CCC[C@H]1c1ncc(-c2ccc3c(c2)OC(c2cccc(C(N)=O)c2)n2c-3cc3cc(-c4cnc([C@@H]5CCCN5C(=O)[C@@H](NC(=O)OC)C(C)C)[nH]4)ccc32)[nH]1)C(C)C (mixture of isomers)
- EC50 [1]: 0.51 nM
- EC50 [2]: 19 nM
- EC50 [3]: > 1 nM
- EC50 [4]: 0.09 nM
- EC50 [5]: 7 nM
- EC50 [6]: > 100 nM
- EC50 [7]: > 1 nM
- EC50 [8]: 0.01 nM

Compound: COC(=O)N[C@H](C(=O)N1CCC[C@H]1c1ncc(-c2ccc3c(c2)OC(c2cccc(-c4cccnc4)c2)n2c-3cc3cc(-c4cnc([C@@H]5CCCN5C(=O)[C@@H](NC(=O)OC)C(C)C)[nH]4)ccc32)[nH]1)C(C)C (mixture of isomers)
- EC50 [1]: 0.004 nM
- EC50 [2]: 26 nM
- EC50 [3]: 0.003 nM
- EC50 [4]: 0.006 nM
- EC50 [5]: 0.2 nM
- EC50 [6]: 8 nM
- EC50 [7]: 0.08 nM
- EC50 [8]: 0.008 nM

Compound: COC(=O)N[C@H](C(=O)N1CCC[C@H]1c1ncc(-c2ccc3c(c2)OC(c2cccc(C(=O)N(C)C)c2)n2c-3cc3cc(-c4cnc([C@@H]5CCCN5C(=O)[C@@H](NC(=O)OC)C(C)C)[nH]4)ccc32)[nH]1)C(C)C (mixture of isomers)
- EC50 [1]: 0.04 nM
- EC50 [2]: > 100 nM
- EC50 [3]: 0.18 nM
- EC50 [4]: 0.02 nM
- EC50 [5]: 0.4 nM
- EC50 [6]: 41 nM
- EC50 [7]: > 1 nM
- EC50 [8]: 0.01 nM

Compound: COC(=O)N[C@H](C(=O)N1CCC[C@H]1c1ncc(-c2ccc3c(c2)OC(c2ccc(C4CC4)cc2)n2c-3cc3cc(-c4cnc([C@@H]5CCCN5C(=O)[C@@H](NC(=O)OC)C(C)C)[nH]4)ccc32)[nH]1)C(C)C (mixture of isomers)
- EC50 [1]: < 0.2 nM
- EC50 [2]: 0.5 nM
- EC50 [3]: < 0.2 nM
- EC50 [4]: 0.003 nM
- EC50 [5]: 0.04 nM
- EC50 [6]: 0.5 nM
- EC50 [7]: 0.03 nM
- EC50 [8]: < 0.02 nM

Compound: COC(=O)N[C@H](C(=O)N1CCC[C@H]1c1ncc(-c2ccc3c(c2)OC(c2cccc(C(=O)O)c2)n2c-3cc3cc(-c4cnc([C@@H]5CCCN5C(=O)[C@@H](NC(=O)OC)C(C)C)[nH]4)ccc32)[nH]1)C(C)C (mixture of isomers)
- EC50 [1]: 11.8 nM
- EC50 [2]: > 1000 nM
- EC50 [3]: 5.15 nM
- EC50 [4]: 2.83 nM
- EC50 [5]: 212 nM
- EC50 [6]: > 1000 nM
- EC50 [7]: 290 nM
- EC50 [8]: 2.4 nM

Compound: COC(=O)N[C@H](C(=O)N1CCC[C@H]1c1ncc(-c2ccc3c(c2)OC(c2ccc(-c4c(C)nn(C)c4C)cc2)n2c-3cc3cc(-c4cnc([C@@H]5CCCN5C(=O)[C@@H](NC(=O)OC)C(C)C)[nH]4)ccc32)[nH]1)C(C)C (mixture of isomers)
- EC50 [1]: 0.02 nM
- EC50 [2]: 15 nM
- EC50 [3]: 0.03 nM
- EC50 [4]: 0.04 nM
- EC50 [5]: < 2 nM
- EC50 [6]: 5 nM
- EC50 [7]: 0.2 nM
- EC50 [8]: 0.02 nM

Compound: COC(=O)N[C@H](C(=O)N1CCC[C@H]1c1ncc(-c2ccc3c(c2)OC(c2cccc(OC(F)(F)F)c2)n2c-3cc3cc(-c4cnc([C@@H]5CCCN5C(=O)[C@@H](NC(=O)OC)C(C)C)[nH]4)ccc32)[nH]1)C(C)C (mixture of isomers)
- EC50 [1]: 0.003 nM
- EC50 [2]: 6.2 nM
- EC50 [3]: 0.01 nM
- EC50 [4]: 0.005 nM
- EC50 [5]: 0.2 nM
- EC50 [6]: 3 nM
- EC50 [7]: 0.03 nM
- EC50 [8]: 0.003 nM

Compound: COC(=O)N[C@H](C(=O)N1CCC[C@H]1c1ncc(-c2ccc3c(c2)OC(c2ccc(-c4ccccc4)cc2)n2c-3cc3cc(-c4cnc([C@@H]5CCCN5C(=O)[C@@H](NC(=O)OC)C(C)C)[nH]4)ccc32)[nH]1)C(C)C (mixture of isomers)
- EC50 [1]: < 0.2 nM
- EC50 [2]: < 2 nM
- EC50 [3]: < 0.02 nM
- EC50 [4]: < 0.02 nM
- EC50 [5]: < 2 nM
- EC50 [6]: < 2 nM
- EC50 [7]: < 0.2 nM
- EC50 [8]: < 0.02 nM

Compound: COC(=O)N[C@H](C(=O)N1CCC[C@H]1c1ncc(-c2ccc3c(c2)OC(c2cccc(-c4ccc(N)nc4)c2)n2c-3cc3cc(-c4cnc([C@@H]5CCCN5C(=O)[C@@H](NC(=O)OC)C(C)C)[nH]4)ccc32)[nH]1)C(C)C (mixture of isomers)
- EC50 [1]: 0.005 nM
- EC50 [2]: 10 nM
- EC50 [3]: 0.002 nM
- EC50 [4]: 0.004 nM
- EC50 [5]: 0.2 nM
- EC50 [6]: 2 nM
- EC50 [7]: 0.2 nM
- EC50 [8]: 0.006 nM
